Patent publication US10125150B2, “Crystalline forms of a PI3K inhibitor” (Incyte Corporation, priority 2015, dated 2018)

Assays:
[1] = target: human JAK1 (a.a. 837-1142) (Homo sapiens, UniProt P23458); experiment: In vitro JAK kinase assay (Example D), JAK1; format: biochemical; conditions: 1 mM ATP
JAK2 (a.a. 828-1132) = JAK2 (a.a. 828-1132) (Homo sapiens (Human), UniProt O60674); experiment: In vitro JAK kinase assay (Example D), JAK2; format: biochemical; conditions: ratio JAK2/JAK1 of IC50s, 1 mM ATP
Chain of JAK2 (a.a. 828-1132) (O60674 828-1132): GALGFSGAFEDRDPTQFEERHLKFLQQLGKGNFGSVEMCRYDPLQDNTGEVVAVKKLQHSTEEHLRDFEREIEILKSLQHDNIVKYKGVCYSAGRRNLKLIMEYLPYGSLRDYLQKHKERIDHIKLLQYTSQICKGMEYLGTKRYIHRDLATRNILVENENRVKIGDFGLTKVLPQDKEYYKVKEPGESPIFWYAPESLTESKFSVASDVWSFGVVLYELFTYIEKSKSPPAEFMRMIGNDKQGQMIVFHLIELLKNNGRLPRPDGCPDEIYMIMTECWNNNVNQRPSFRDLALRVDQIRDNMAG

SMILES	IC50 [1]	JAK2/JAK1 (JAK2 (a.a. 828-1132))
N#CC[C@]1(n2cc(-c3ncnc4[nH]ccc34)cn2)C[C@H](N2CCN(C(=O)c3ccnc(C(F)(F)F)n3)CC2)C1 [Form 10, [trans-1-[4-(7H-pyrrolo[2,3-d]pyrimidin-4-yl)-1H-pyrazol-1-yl]-3-(4-{[2-(trifluoromethyl)pyrimidin-4-yl]carbonyl}piperazin-1-yl)cyclobutyl]acetonitrile]	< 10 nM	>10
N#CCC(CN1CCN(C(=O)c2ccc(C#N)cc2F)CC1)n1cc(-c2ncnc3[nH]ccc23)cn1 (centres unmarked) [Form 5, 4-[(4-{3-cyano-2-[4-(7H-pyrrolo[2,3-d]pyrimidin-4-yl)-1H-pyrazol-1-yl]propyl}piperazin-1-yl)carbonyl]-3-fluorobenzonitrile]	< 10 nM	>10
C[C@H](NC(=O)c1cc(F)c(N2CC(CC#N)(n3cc(-c4ncnc5[nH]ccc45)cn3)C2)cc1F)C(F)(F)F [Form 16, 4-{3-(cyanomethyl)-3-[4-(7H-pyrrolo[2,3-d]pyrimidin-4-yl)-1H-pyrazol-1-yl]azetidin-1-yl}-2,5-difluoro-N-[(1S)-2,2,2-trifluoro-1-methylethyl]benzamide]	< 10 nM	>10
N#CCC1(n2cc(-c3ncnc4[nH]ccc34)cn2)CN(C2CCN(C(=O)c3ccnc(C(F)(F)F)c3F)CC2)C1 [Form 7, {1-{1-[3-Fluoro-2-(trifluoromethyl)isonicotinoyl]piperidin-4-yl}-3-[4-(7H-pyrrolo[2,3-d]pyrimidin-4-yl)-1H-pyrazol-1-yl]azetidin-3-yl}acetonitrile]	< 10 nM	>10
N#CCC(C1CCN(c2cccc(Cl)n2)C1)n1cc(-c2ncnc3[nH]ccc23)cn1 (single isomer, unassigned) [Form 3, 3-[1-(6-chloropyridin-2-yl)pyrrolidin-3-yl]-3-[4-(7H-pyrrolo[2,3-d]pyrimidin-4-yl)-1H-pyrazol-1-yl]propanenitrile]	< 10 nM	>10
N#CCC(C1CCN(c2nc3cccnc3o2)C1)n1cc(-c2ncnc3[nH]ccc23)cn1 (centres unmarked) [Form 4, 3-(1-[1,3]oxazolo[5,4-b]pyridin-2-ylpyrrolidin-3-yl)-3-[4-(7H-pyrrolo[2,3-d]pyrimidin-4-yl)-1H-pyrazol-1-yl]propanenitrile]	< 10 nM	>10
N#CCC1(n2cc(-c3ncnc4[nH]ccc34)cn2)CN(C2CCN(C(=O)c3ccnc(C(F)(F)F)n3)CC2)C1 [Form 9, [3-[4-(7H-pyrrolo[2,3-d]pyrimidin-4-yl)-1H-pyrazol-1-yl]-1-(1-{[2-(trifluoromethyl)pyrimidin-4-yl]carbonyl}piperidin-4-yl)azetidin-3-yl]acetonitrile]	< 10 nM	>10
N#CC[C@]1(n2cc(-c3ncnc4[nH]ccc34)cn2)C[C@H](N2CCC(Oc3cc(CN4CCC[C@H]4CO)cc(C(F)(F)F)n3)CC2)C1 [Form 12, {trans-3-(4-{[4-{[(2S)-2-(hydroxymethyl)pyrrolidin-1-yl]methyl}-6-(trifluoromethyl)pyridin-2-yl]oxy}piperidin-1-yl)-1-[4-(7H-pyrrolo[2,3-d]pyrimidin-4-yl)-1H-pyrazol-1-yl]cyclobutyl}acetonitrile]	< 10 nM	>10
N#CCC(CN1CCN(C(=O)c2ccc(C#N)cc2F)CC1)n1ccc(-c2ncnc3[nH]ccc23)c1 (centres unmarked) [Form 6, 4-[(4-{3-cyano-2-[3-(7H-pyrrolo[2,3-d]pyrimidin-4-yl)-1H-pyrrol-1-yl]propyl}piperazin-1-yl)carbonyl]-3-fluorobenzonitrile]	< 10 nM	>10
C[C@@H](O)c1nc2cnc3ccsc3c2n1[C@H]1CC[C@H](CC#N)OC1 [Form 1, ((2R,5S)-5-{2-[(1R)-1-hydroxyethyl]-1H-imidazo[4,5-d]thieno[3,2-b]pyridin-1-yl}tetrahydro-2H-pyran-2-yl)acetonitrile]	< 100 nM	>10
N#CC[C@]1(n2cc(-c3ncnc4[nH]ccc34)cn2)C[C@H](N2CCC(Oc3cc(CN4CCC[C@@H]4CO)cc(C(F)(F)F)n3)CC2)C1 [Form 13, {trans-3-(4-{[4-{[(2R)-2-(hydroxymethyl)pyrrolidin-1-yl]methyl}-6-(trifluoromethyl)pyridin-2-yl]oxy}piperidin-1-yl)-1-[4-(7H-pyrrolo[2,3-d]pyrimidin-4-yl)-1H-pyrazol-1-yl]cyclobutyl}acetonitrile]	< 10 nM	>10
N#CCC1(n2cc(-c3ncnc4[nH]ccc34)cn2)CN(C2CCN(C(=O)Nc3ccc(F)cc3C(F)(F)F)CC2)C1 [Form 8, 4-{3-(Cyanomethyl)-3-[4-(7H-pyrrolo[2,3-d]pyrimidin-4-yl)-1H-pyrazol-1-yl]azetidin-1-yl}-N-[4-fluoro-2-(trifluoromethyl)phenyl]piperidine-1-carboxamide]	< 10 nM	>10
N#CC[C@]1(n2cc(-c3ncnc4[nH]ccc34)cn2)C[C@H](N2CCC(Oc3cc(CN4CC(O)C4)cc(C(F)(F)F)n3)CC2)C1 [Form 11, {trans-3-(4-{[4-[(3-hydroxyazetidin-1-yl)methyl]-6-(trifluoromethyl)pyridin-2-yl]oxy}piperidin-1-yl)-1-[4-(7H-pyrrolo[2,3-d]pyrimidin-4-yl)-1H-pyrazol-1-yl]cyclobutyl}acetonitrile]	< 10 nM	>10

The next lines start with the values.

IC50 [1]	JAK2/JAK1 (JAK2 (a.a. 828-1132))	SMILES
< 10 nM	>10	C[C@H](O)CNCc1cc(OC2CCN([C@H]3C[C@](CC#N)(n4cc(-c5ncnc6[nH]ccc56)cn4)C3)CC2)nc(C(F)(F)F)c1 [Form 25, {trans-3-(4-([4-({[(2S)-2-hydroxypropyl]amino}methyl)-6-(trifluoromethyl)pyridin-2-yl]oxy}piperidin-1-yl)-1-[4-(7H-pyrrolo[2,3-d]pyrimidin-4-yl)-1H-pyrazol-1-yl]cyclobutyl}acetonitrile]
< 10 nM	>10	C[C@@H](CO)NCc1cc(OC2CCN([C@H]3C[C@](CC#N)(n4cc(-c5ncnc6[nH]ccc56)cn4)C3)CC2)nc(C(F)(F)F)c1 [Form 23, {trans-3-(4-{[4-({[(1S)-2-hydroxy-1-methylethyl]amino}methyl)-6-(trifluoromethyl)pyridin-2-yl]oxy}piperidin-1-yl)-1-[4-(7H-pyrrolo[2,3-d]pyrimidin-4-yl)-1H-pyrazol-1-yl]cyclobutyl}acetonitrile]
< 10 nM	>10	C[C@@H](O)CNCc1cc(OC2CCN([C@H]3C[C@](CC#N)(n4cc(-c5ncnc6[nH]ccc56)cn4)C3)CC2)nc(C(F)(F)F)c1 [Form 24, {trans-3-(4-{[4-({[(2R)-2-hydroxypropyl]amino}methyl)-6-(trifluoromethyl)pyridin-2-yl]oxy}piperidin-1-yl)-1-[4-(7H-pyrrolo[2,3-d]pyrimidin-4-yl)-1H-pyrazol-1-yl]cyclobutyl}acetonitrile]
< 10 nM	>10	N#CC[C@]1(n2cc(-c3ncnc4[nH]ccc34)cn2)C[C@H](N2CCC(Oc3cc(CCO)cc(C(F)(F)F)n3)CC2)C1 [Form 26, {trans-3-(4-{[4-(2-hydroxyethyl)-6-(trifluoromethyl)pyridin-2-yl]oxy}piperidin-1-yl)-1-[4-(7H-pyrrolo[2,3-d]pyrimidin-4-yl)-1H-pyrazol-1-yl]cyclobutyl}acetonitrile]
< 10 nM	>10	CCNCc1cc(O[C@H]2CC[C@@H](N3CC(CC#N)(n4cc(-c5ncnc6[nH]ccc56)cn4)C3)CC2)nc(C(F)(F)F)c1 [Form 19, {1-(cis-4-{[4-[(ethylamino)methyl]-6-(trifluoromethyl)pyridin-2-yl]oxy}cyclohexyl)-3-[4-(7H-pyrrolo[2,3-d]pyrimidin-4-yl)-1H-pyrazol-1-yl]azetidin-3-yl}acetonitrile]
< 10 nM	>10	CC(C)(O)c1cc(O[C@H]2CC[C@@H](N3CC(CC#N)(n4cc(-c5ncnc6[nH]ccc56)cn4)C3)CC2)nc(C(F)(F)F)c1 [Form 20, {1-(cis-4-{[4-(1-hydroxy-1-methylethyl)-6-(trifluoromethyl)pyridin-2-yl]oxy}cyclohexyl)-3-[4-(7H-pyrrolo[2,3-d]pyrimidin-4-yl)-1H-pyrazol-1-yl]azetidin-3-yl}acetonitrile]
< 10 nM	>10	N#CCC1(n2cc(-c3ncnc4[nH]ccc34)cn2)CN([C@H]2CC[C@@H](Oc3cc(CCO)nc(C(F)(F)F)n3)CC2)C1 [Form 18, {1-(cis-4-{[6-(2-hydroxyethyl)-2-(trifluoromethyl)pyrimidin-4-yl]oxy}cyclohexyl)-3-[4-(7H-pyrrolo[2,3-d]pyrimidin-4-yl)-1H-pyrazol-1-yl]azetidin-3-yl}acetonitrile]
< 10 nM	>10	N#CCC1(n2cc(-c3ncnc4[nH]ccc34)cn2)CN([C@H]2CC[C@@H](Oc3cc(CN4CC[C@H](O)C4)cc(C(F)(F)F)n3)CC2)C1 [Form 22, {1-(cis-4-{[4-{[(3S)-3-hydroxypyrrolidin-1-yl]methyl}-6-(trifluoromethyl)pyridin-2-yl]oxy}cyclohexyl)-3-[4-(7H-pyrrolo[2,3-d]pyrimidin-4-yl)-1H-pyrazol-1-yl]azetidin-3-yl}acetonitrile]
< 10 nM	>10	N#CCC1(n2cc(-c3ncnc4[nH]ccc34)cn2)CN([C@H]2CC[C@@H](Oc3cc(CN4CC[C@@H](O)C4)cc(C(F)(F)F)n3)CC2)C1 [Form 21, {1-(cis-4-{[4-{[(3R)-3-hydroxypyrrolidin-1-yl]methyl}-6-(trifluoromethyl)pyridin-2-yl]oxy}cyclohexyl)-3-[4-(7H-pyrrolo[2,3-d]pyrimidin-4-yl)-1H-pyrazol-1-yl]azetidin-3-yl}acetonitrile]
